Data published in paper PMC8063935, “Amphipathic Peptide Antibiotics with Potent Activity against Multidrug-Resistant Pathogens” (Pharmaceutics, 2021).
≈ marks a conversion by molar mass, not a printed value. Where a SMILES comes first, the peptide text is derived from it.

How the values were obtained:
E. coli G6 (blaNDM-5) = assay: MIC / IC50, micro-broth dilution; format: cell-based, Escherichia coli
Procedure: (§1) The MICs of all drugs were determined by micro-broth dilution method according to CLSI 2018 guidelines. The bacterial suspension used in the experiment was appropriate 1.5 × 10^6 colony-forming units (CFUs) per mL and mixed with the drug solution in a sterilized 96-well microtiter plate (Corning, New York, USA), then incubated at 37 °C for 16–18 h. MIC value was defined as the minimum drug concentration without visible bacteria. Meanwhile, the density of the bacteria at 600 nm was measured, and the corresponding IC50 was calculated using log (inhibitor) vs. response variable slope (four parameters) in Graphpad Prism version 8.3.0 software (San Diego, CA, USA). To assess the role of ROS production in the antibacterial activity of WW307, increasing concentrations of N-acetylcysteine (NAC) from 0 to 5 mM were added in culture medium, followed by MICs test.

E. coli C3 (blaNDM-1) = assay: MIC / IC50, micro-broth dilution; format: cell-based, Escherichia coli
Procedure: as §1

E. coli CP131 (mcr-3) = assay: MIC / IC50, micro-broth dilution; format: cell-based, Escherichia coli; conditions: E. coli CP131 (mcr-3)
Procedure: as §1

[1] = system: P. cibarius HNCF44W (blaNDM-1 + tet(X6)); assay: MIC / IC50, micro-broth dilution; format: cell-based
Procedure: as §1

MRSA T144 [2] = assay: microbe, parasite or virus in culture; format: cell-based, Staphylococcus aureus
Procedure: as §1

S. aureus G16 (RIF^R) = assay: microbe, parasite or virus in culture; format: cell-based, Staphylococcus aureus; conditions: S. aureus G16 (RIF^R)
Procedure: as §1

E. coli B2 [3] = assay: Thermal, pH, salts, serum and protease stability (residual MIC); format: cell-based, Escherichia coli; conditions: protease precipitated with acetonitrile, then MIC test
[4] = system: A. baumannii C222 (tet(X6)); assay: microbe, parasite or virus in culture; format: cell-based, Acinetobacter baumannii; conditions: A. baumannii C222 (tet(X6))
Procedure: as §1

MRSA T144 [5] = assay: Thermal, pH, salts, serum and protease stability (residual MIC); format: cell-based, Staphylococcus aureus; conditions: protease precipitated with acetonitrile, then MIC test
E. coli B2 [6] = assay: as above; format: cell-based, Escherichia coli
Procedure: (§2) In order to evaluate the influence of ions and serum on the activity of AMPs, 10 mM Na^+, K^+, Mg^2+, 10% Dulbecco’s Modified Eagle Medium (DMEM) and fetal bovine serum (FBS) were added into Mueller-Hinton broth (MHB) culture medium for subsequent MIC tests.
(§3) Drugs were incubated at different temperatures (range from 40 to 121 °C) and pH (range from 2 to 12) for 1 h, then adjust back to original pH, following MIC test to evaluate their residual activity. To evaluate the protease stability, pepsin, trypsin, and papain were mixed with WW307 to achieve a final concentration of 1 mM, and then incubated at 37 °C for 1 h. After incubation, the remaining protease was precipitated using acetonitrile and removed by centrifugation at 3000× g, following for MIC test.

E. coli G92 (mcr-1) = assay: microbe, parasite or virus in culture; format: cell-based, Escherichia coli; conditions: E. coli G92 (mcr-1)
Procedure: as §1

[7] = system: E. coli B2 (mcr-1 + blaNDM-5); assay: microbe, parasite or virus in culture; format: cell-based, Escherichia coli; conditions: E. coli B2 (mcr-1 + blaNDM-5)
Procedure: as §1

E. coli 1F28 (tet(X4)) = assay: microbe, parasite or virus in culture; format: cell-based, Escherichia coli
Procedure: as §1

Sheep RBCs = assay: Hemolysis analysis; format: cell-based; conditions: 8% sheep red blood cell suspension, 37 °C, 1 h, released hemoglobin at 576 nm; PBS negative, ddH2O positive control
Procedure: The hemolytic activity on all peptides was evaluated based on previous report. Briefly, fresh Sheep RBCs were washed twice with phosphate buffer (PBS), and then 8% red blood cell suspension was prepared. The increasing concentrations of AMPs and melittin were mixed with 8% red blood cell suspension, respectively, and incubated at 37 °C for 1 h. The sterilized PBS and double-distilled water (ddH2O) were used as blank and positive control, respectively. Afterwards, the supernatant was centrifuged to measure the absorption of released hemoglobin at 576 nm by an Infinite M200 Microplate reader (Tecan, Männedorf, Switzerland). The corresponding hemolysis rate was calculated.

MRSA T144 [8] = assay: Thermal, pH, salts, serum and protease stability (residual MIC); format: cell-based, Staphylococcus aureus
Procedure: as §2, §3

[9] = OD600 of micro-broth dilution plates, four-parameter fit
[10] = micro-broth dilution, CLSI 2018, ~1.5 × 10^6 CFUs per mL, 37 °C, 16–18 h
[11] = WW307 incubated with trypsin (1 mg/mL) at 37 °C for 1 h
[12] = 10% fetal bovine serum (FBS) added into MHB
[13] = WW307 incubated at 40 °C for 1 h before MIC test
[14] = WW307 incubated at 60 °C for 1 h before MIC test
[15] = WW307 incubated at 80 °C for 1 h before MIC test
[16] = WW307 incubated at 100 °C for 1 h before MIC test
[17] = WW307 incubated at 121 °C for 1 h before MIC test
[18] = WW307 incubated at pH 2 for 1 h, adjusted back to original pH, then MIC test
[19] = WW307 incubated at pH 4 for 1 h, adjusted back to original pH, then MIC test
[20] = WW307 incubated at pH 6 for 1 h, adjusted back to original pH, then MIC test
[21] = WW307 incubated at pH 8 for 1 h, adjusted back to original pH, then MIC test
[22] = WW307 incubated at pH 10 for 1 h, adjusted back to original pH, then MIC test
[23] = WW307 incubated at pH 12 for 1 h, adjusted back to original pH, then MIC test

## CC(C)[C@H](NC(=O)[C@H](Cc1c[nH]c2ccccc12)NC(=O)[C@H](Cc1c[nH]c2ccccc12)NC(=O)[C@H](Cc1c[nH]c2ccccc12)NC(=O)[C@H](Cc1c[nH]c2ccccc12)NC(=O)[C@H](CCCNC(=N)N)NC(=O)[C@H](CCCNC(=N)N)NC(=O)[C@@H](N)CCCNC(=N)N)C(N)=O [WW307] (H-RRRWWWWV-NH2)
E. coli G6 (blaNDM-5); [9]
  IC50: 2.25 µg/mL (≈ 1.69 µM)
E. coli G6 (blaNDM-5); [10]
  MIC: 8 µg/mL (≈ 6.02 µM)
E. coli C3 (blaNDM-1); [9]
  IC50: 1.82 µg/mL (≈ 1.37 µM)
E. coli C3 (blaNDM-1); [10]
  MIC: 4 µg/mL (≈ 3.01 µM)
E. coli CP131 (mcr-3); [9]
  IC50: 2.07 µg/mL (≈ 1.56 µM)
E. coli CP131 (mcr-3); [10]
  MIC: 4 µg/mL (≈ 3.01 µM)
[1]; [9]
  IC50: 2.21 µg/mL (≈ 1.66 µM)
[1]; [10]
  MIC: 2 µg/mL (≈ 1.5 µM)
MRSA T144 [2]; [9]
  IC50: 1.03 µg/mL (≈ 0.775 µM)
MRSA T144 [2]; [10]
  MIC: 4 µg/mL (≈ 3.01 µM)
S. aureus G16 (RIF^R); [9]
  IC50: 0.52 µg/mL (≈ 0.391 µM)
S. aureus G16 (RIF^R); [10]
  MIC: 1 µg/mL (≈ 0.752 µM)
E. coli B2 [3]; WW307 incubated with papain (1 mg/mL) at 37 °C for 1 h
  MIC after papain: >128 µg/mL
E. coli B2 [3]; [11]
  MIC after trypsin: >128 µg/mL
[4]; [9]
  IC50: 2.15 µg/mL (≈ 1.62 µM)
[4]; [10]
  MIC: 4 µg/mL (≈ 3.01 µM)
MRSA T144 [5]; WW307 incubated with pepsin (1 mg/mL) at 37 °C for 1 h
  MIC after pepsin: 4 µg/mL
MRSA T144 [5]; [11]
  MIC after trypsin: >128 µg/mL
E. coli B2 [6]; 10 mM K^+ added into MHB
  MIC with K^+: 4 µg/mL
E. coli B2 [6]; 10 mM Mg^2+ added into MHB
  MIC with Mg^2+: 16 µg/mL
E. coli B2 [6]; 10 mM Na^+ added into MHB
  MIC with Na^+: 4 µg/mL
E. coli B2 [6]; 10% DMEM added into MHB
  MIC with DMEM (10%): 8 µg/mL
E. coli B2 [6]; [12]
  MIC with Serum (10%): 8 µg/mL
E. coli B2 [6]; [13]
  MIC after 40 °C: 4 µg/mL
E. coli B2 [6]; [14]
  MIC after 60 °C: 4 µg/mL
E. coli B2 [6]; [15]
  MIC after 80 °C: 4 µg/mL
E. coli B2 [6]; [16]
  MIC after 100 °C: 4 µg/mL
E. coli B2 [6]; [17]
  MIC after 121 °C: 4 µg/mL
E. coli B2 [6]; [18]
  MIC after pH 2: 4 μg/mL
E. coli B2 [6]; [19]
  MIC after pH 4: 4 μg/mL
E. coli B2 [6]; [20]
  MIC after pH 6: 4 μg/mL
E. coli B2 [6]; [21]
  MIC after pH 8: 4 μg/mL
E. coli B2 [6]; [22]
  MIC after pH 10: 4 μg/mL
E. coli B2 [6]; [23]
  MIC after pH 12: 8 μg/mL
E. coli B2 [6]; WW307 incubated with pepsin (1 mg/mL) at 37 °C for 1 h, protease precipitated with acetonitrile, then MIC test
  MIC after pepsin: 4 µg/mL
E. coli B2 [6]; untreated WW307
  MIC, Control: 4 µg/mL
E. coli G92 (mcr-1); [9]
  IC50: 2.18 µg/mL (≈ 1.64 µM)
E. coli G92 (mcr-1); [10]
  MIC: 4 µg/mL (≈ 3.01 µM)
[7]; [9]
  IC50: 4.18 µg/mL
[7]; [10]
  MIC: 4 µg/mL
E. coli 1F28 (tet(X4)); [9]
  IC50: 2.13 µg/mL (≈ 1.6 µM)
E. coli 1F28 (tet(X4)); [10]
  MIC: 4 µg/mL (≈ 3.01 µM)
Sheep RBCs
  HL50 (peptide concentration that causes 50% hemolysis): > 128 µg/mL
MRSA T144 [8]; 10 mM K^+ added into MHB
  MIC with K^+: 4 µg/mL
MRSA T144 [8]; 10 mM Mg^2+ added into MHB
  MIC with Mg^2+: 16 µg/mL
MRSA T144 [8]; 10 mM Na^+ added into MHB
  MIC with Na^+: 4 µg/mL
MRSA T144 [8]; 10% DMEM added into MHB
  MIC with DMEM (10%): 8 µg/mL
MRSA T144 [8]; [12]
  MIC with Serum (10%): 8 µg/mL
MRSA T144 [8]; [13]
  MIC after 40 °C: 4 µg/mL
MRSA T144 [8]; [14]
  MIC after 60 °C: 4 µg/mL
MRSA T144 [8]; [15]
  MIC after 80 °C: 4 µg/mL
MRSA T144 [8]; [16]
  MIC after 100 °C: 4 µg/mL
MRSA T144 [8]; [17]
  MIC after 121 °C: 4 µg/mL
MRSA T144 [8]; [18]
  MIC after pH 2: 4 μg/mL
MRSA T144 [8]; [19]
  MIC after pH 4: 4 μg/mL
MRSA T144 [8]; [20]
  MIC after pH 6: 4 μg/mL
MRSA T144 [8]; [21]
  MIC after pH 8: 4 μg/mL
MRSA T144 [8]; [22]
  MIC after pH 10: 4 μg/mL
MRSA T144 [8]; [23]
  MIC after pH 12: 4 μg/mL
MRSA T144 [8]; WW307 incubated with papain (1 mg/mL) at 37 °C for 1 h, protease precipitated with acetonitrile, then MIC test
  MIC after papain: >128 µg/mL
MRSA T144 [8]; untreated WW307
  MIC, Control: 4 µg/mL
